Measurements as given in patent US20070270462A1, “8-hydroxyquinoline compounds for treating a polyglutamine (polyQ)-expansion disease” (priority 2005, published 2007).
Marks after values point to notes of the source that are not given here.

Assays:
Htt exon1-Q25-egfp = experiment: Fluorescence microscopy of transfected PC12 cells expressing Htt exon1-Q25-egfp; type: cell-based; conditions: CQ 4 μM, 48 hours post-transfection
Description: (§1) PolyQ-htt-GFP fusion constructs, in which the polyglutamine region is encoded by CAA and CAG-containing tandem repeats ([…]) [SEQ ID NO: 1], human polyglutaminen, were obtained from the Hereditary Disease Foundation, Santa Monica, Calif., USA. PC12 and HEK293 cells were maintained in MEM supplemented with 10% v/v FBS, switched to Opti-MEM without serum for 6 hrs during transfection using Lipofectamine 2000 (Invitrogen, Carlsbad, Calif., USA), and returned to serum-containing medium thereafter (up to 48 hours). […] Control cultures received equivalent amounts of DMSO-containing vehicle (<0.1% w/v DMSO, final concentration).
(§2) Concordant with this reduction in mutant protein expression, cell survival was improved by CQ in a dose dependent fashion with a half maximal effect at 1-2 μM (FIG. 2b). Cell death began to increase at 8 μM, likely due to dose-dependent toxic effects of CQ.

R6/2 mice = experiment: Fasting blood insulin in R6/2 mice (ELISA); type: in vivo, mouse; conditions: 11-week old R6/2 mice
Protocol: A colony of transgenic mice strain R6/2 that is heterozygous for htt exon1 (containing 145 CAG repeats) was maintained, with founders originating and available from The Jackson Laboratory (Bar Harbor, Me., USA). Male transgenic R6/2 mice were bred with background strain (B6CBAFI/J) females. Genotyping was done according to Hockly et al, Brain Res Bull 61, 469-479, 2003. CQ in water was orally administered to mice at 30 mg/kg/day starting at 3 weeks of age and continued until the mice were deceased or sacrificed for tissues. Littermate R6/2 mice were gavaged with water vehicle alone. At the end of CQ treatment mice were anesthetized and transcardially perfused with PBS followed by 4% v/v paraformaldehyde. Blood glucose levels were determined after at least 8 hrs of fasting in 11-week old mice (n=6 for wild-type, n=4 for vehicle-treated R6/2, n=6 for CQ-treated R6/2 littermates) using a 2300 STAT Plus glucose analyzer (YSI, Yellowsonte, Ohio, USA). Fasting blood insulin levels in animals fasted for 8 hrs were measured using an Ultra Sensitive Rat Insulin ELISA Kit (Crystal Chem, Inc., Downers Grove, Ill., USA) according to manufacturer's instructions.
Consistent with the blood glucose level was a reciprocal change in blood insulin levels.
Data are mean+s.e.m. n≧4 for each treatment group. *P<0.0004 for glucose, **P=0.0065 for insulin levels comparing vehicle and CQ-treated groups.

Htt exon1-Q103-egfp [1] = experiment: Fluorescence microscopy of transiently transfected PC12 cells expressing Htt exon1-Q103-egfp; type: cell-based; conditions: CQ 4 μM, 48 hours post-transfection
Description: as §1, §2

Htt exon1-Q103-egfp [2] = experiment: Proteasome inhibitor MG132 treatment of CQ-treated Htt exon1-Q103-egfp-expressing HEK293 cells; type: cell-based; conditions: pan-proteasome inhibitor MG132
Protocol: (§3) HEK293 or PC12 cells were lysed in PBS buffer containing 1% v/v Triton X-100 and protease inhibitor cocktail (Roche, Indianapolis, Ind.), and passed through a 28 gauge needle to ensure the release of Htt inclusions from the nuclei. Whole mouse brains were homogenized in 50 mM Tris-HCl (pH 7.4), 150 mM NaCl, 1% v/v Triton X-100 and complete protease inhibitor cocktail. Brain homogenate was pre-cleared by centrifuging at 7,500 g for 90 s at 4° C. The supernatant was passed through a 28-gauge needle and boiled in SDS sample buffer for 10 min. Fifty μg of total protein was loaded onto 10% w/v SDS gel containing a 4% w/v stacking gel. Monoclonal antibodies anti-polyglutamine (1:2,000), anti-GAPDH (1:10,000), anti-GFP (1:4,000), and anti-Htt (EM48) in 1:1000 dilution were used for immunoblotting. All western blot experiments were performed at least three times and band intensities were averaged.
In examining potential mechanisms for the effects of CQ on Htt accumulation, we considered the possibilities that CQ might act to inhibit Htt aggregation or directly influence Htt synthesis or degradation. […] Therefore, we focused on the aspects of Htt synthesis and turnover. To determine whether CQ might down-regulate polyQ-Htt expression at the transcriptional level, we examined the amount of Htt^exon1-Q103-egfp mRNA present after 48 hrs of transfection by Northern analysis. […]

Htt exon1-Q103-egfp [3] = experiment: Western blotting of cell extracts, Htt exon1-Q103-egfp expression; type: cell-based
Description: as §1
as §3, with “Monoclonal antibodies anti-polyglutamine (1:2,000), anti-GAPDH (1:10,000), anti-GFP (1:4,000), and anti-Htt (EM48) in 1:1000 dilution were used for immunoblotting. All western blot experiments were performed at least three times and band intensities were averaged.” left out

Htt exon1-Q103-egfp [4] = experiment: Pulse-chase assay of Htt exon1-Q103-egfp turnover; type: cell-based; conditions: HEK293 cells, 4 μM CQ
Protocol: HEK293 cells at 90% confluence on 100 mm plates coated with poly-D-lysine (0.1 μg/μl) were transfected for 4 hr in Opti-MEM medium before replacement of the medium with MEM supplemented with 10% v/v FBS. After another 5 hr incubation, cells were trypsinized and replated in two wells of a 6-well plate, then incubated for another 14 hr at 37° C. The medium was replaced with methionine-free MEM medium supplemented with 5% v/v FBS, and cells incubated for 1.5 hr with 4 μM of CQ or DMSO vehicle added during the last 30 min of incubation. One mCi of Smethionine (Amersham Biosciences, Piscataway, N.J.) in 12 ml of methionine-free MEM was prepared as a pulse stock medium. Cells were pulsed for 10 min by replacing the medium with 1 ml of the pulse stock medium. At different time points, cells were washed twice with ice-cold PBS and lysed in 1 ml of IP lysis buffer (50 mM Tris-HCl, pH 7.5, 150 mM NaCl, 1% v/v NP-40, 0.5% v/v sodium deoxycholate, 1 tab mini-complete protease inhibitor/10 ml buffer). Cells were harvested by scraping, placed in 1.5 ml microcentrifuge tube, and lysed with constant agitation at 4° C. for at least 30 min before immunoprecipitation of the Htt^exon1-Q103-egfp protein using anti-polyglutamine antibody and protein G agarose beads (Roche, Indianapolis, Ind., USA). Assays were performed at least three times. […]

egfp-alone = experiment: Fluorescence microscopy of transfected PC12 cells expressing egfp alone; type: cell-based; conditions: CQ 4 μM, 48 hours post-transfection
Description: as §1, §2

For `Oc1c(I)cc(Cl)c2cccnc12` [CQ, 5-chloro-7-iodo-8-hydroxy-quinoline], the “fluorescent product of Htt exon1-Q25-egfp” value (Htt exon1-Q25-egfp) was “unaffected”, the fasting blood insulin level (R6/2 mice; CQ treated group) was 415 ± 54.6 pg/mL and the Insulin level (R6/2 mice; fasting, CQ-treated, mean ± s.e.m. (Table 3)) was 415 ± 54.60** pg/ml. For the same molecule, the “fluorescent product of Htt exon1-Q103-egfp” value (Htt exon1-Q103-egfp [1]) was “less fluorescent product”, the “suppression of exon1-Q103-egfp protein production by CQ under MG132 treatment” value (Htt exon1-Q103-egfp [2]) was “not affected” and the “CQ concentration at which dose-dependent inhibition of Htt exon1-Q103-egfp expression begins” value (Htt exon1-Q103-egfp [3]) was 0.5 µM. The “inhibition of Htt exon1-Q103-egfp expression” value (Htt exon1-Q103-egfp [3]; 2 μM CQ) was 3.2 fold, the “rates of Q103-egfp degradation in the presence of CQ” value (Htt exon1-Q103-egfp [4]) was “No significant differences” and the “fluorescent product of egfp-alone” value (egfp-alone) was “unaffected”.
